*1 amine or outer side, *2 acyl side, *3 side chain or, on linkers, in order; H or OH if unused. Where a SMILES comes first, the peptide text is derived from it. Side-chain parts run from the residue outwards. [ ]: non-standard residue; d: D form. The star is where a group is joined. C16 diacid = O=C(O)CCCCCCCCCCCCCCC(=O)*; γGlu = O=C(O)[C@H](CCC(=O)[*:2])N[*:1]; NMeI = CC[C@H](C)[C@H](NC)C(=O)O; αMeL = CC(C)C[C@](C)(N)C(=O)O; Ac3c = NC1(C(=O)O)CC1; Aib = CC(C)(N)C(=O)O
Experiments:
[1] = molecular target: T1, CFR1R receptor (Homo sapiens, UniProt P34998); test: Activity at anti-target CFR1R receptor, cAMP assay in CRF1R-overexpression CHO-K1 cells; type: cell-based; conditions: 100% = Sauvagine at 100 nM; for EC50: cAMP
T1 construct: host or cells: CHO-K1 (clone 2)
T1 sequence (P34998 24-415): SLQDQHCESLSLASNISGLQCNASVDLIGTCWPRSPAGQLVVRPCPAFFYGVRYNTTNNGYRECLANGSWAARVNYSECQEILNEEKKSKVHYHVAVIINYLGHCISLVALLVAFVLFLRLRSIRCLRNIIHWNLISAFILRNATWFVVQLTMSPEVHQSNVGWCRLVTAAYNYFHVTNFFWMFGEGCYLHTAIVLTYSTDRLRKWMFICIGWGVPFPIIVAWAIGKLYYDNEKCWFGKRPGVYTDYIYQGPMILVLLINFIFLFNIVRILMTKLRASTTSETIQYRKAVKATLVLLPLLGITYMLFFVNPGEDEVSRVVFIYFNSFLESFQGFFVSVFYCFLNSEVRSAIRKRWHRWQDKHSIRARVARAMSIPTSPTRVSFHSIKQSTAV
Procedure, shortened: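 Clone 2; cryopreserved stocks (10% DMSO); 4000 cells/well final; 100% activation = Sauvagine 100 nM; otherwise as TeloHAEC protocol.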

[2] = molecular target: T2, human CRF2a receptor (Homo sapiens, UniProt Q13324); test: Activity at human CRF2a receptor, cAMP functional assay in TeloHEAC cells; type: cell-based; conditions: TeloHEAC cells stably expressing human CRF2a receptor, relative to urocortin 2 (100 nM = 100%)
T2 construct: expressed in transfected cells; host or cells: TeloHEAC cells
T2 sequence (Q13324 1-411): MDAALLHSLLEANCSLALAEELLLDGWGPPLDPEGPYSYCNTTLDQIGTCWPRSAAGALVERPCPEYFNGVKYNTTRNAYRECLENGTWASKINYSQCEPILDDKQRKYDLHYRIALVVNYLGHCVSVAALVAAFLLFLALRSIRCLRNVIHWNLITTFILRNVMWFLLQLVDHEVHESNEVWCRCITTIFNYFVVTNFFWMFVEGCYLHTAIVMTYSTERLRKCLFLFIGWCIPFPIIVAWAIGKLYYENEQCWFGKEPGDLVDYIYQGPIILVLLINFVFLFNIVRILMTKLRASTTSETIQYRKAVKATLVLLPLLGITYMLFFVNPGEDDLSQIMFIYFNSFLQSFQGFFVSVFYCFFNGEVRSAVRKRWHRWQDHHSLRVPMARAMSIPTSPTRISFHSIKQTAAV
Procedure, shortened: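 TeloHEAC cells stably expressing human CRF2a (10000 cells/well) were treated with 16-point 1:2 compound dilutions in HBSS/20 mM HEPES with IBMX for 30 min at 37° C. cAMP was read by HTRF (665/620 nm ratio). EC50 was the concentration giving 50% activation, with 100 nM urocortin 2 set as 100%.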

| Emax (% I) [1] [% I] | EC50 [1] [nM] | EC50 [2] [nM] | SMILES |
| --- | --- | --- | --- |
| 3 | > 250 | 0.36 | CC[C@H](C)[C@H](NC(C)=O)C(=O)N[C@H](C(=O)N[C@@H](CC(C)C)C(=O)N[C@@H](CO)C(=O)N[C@@H](CC(C)C)C(=O)N[C@@H](CC(=O)O)C(=O)N[C@@H](C(=O)N1CCC[C@H]1C(=O)N[C@H](C(=O)N[C@@H](CCCCN)C(=O)N[C@@H](CC(C)C)C(=O)N[C@@H](CCCCNC(=O)CC[C@H](NC(=O)CCCCCCCCCCCCCCC(=O)O)C(=O)O)C(=O)N[C@@H](CCCCN)C(=O)N[C@H](C(=O)N[C@@H](CC(C)C)C(=O)N[C@@H](CC(C)C)C(=O)N[C@@H](CCC(=O)O)C(=O)N[C@@H](CCC(N)=O)C(=O)N[C@@H](CCC(=O)O)C(=O)N[C@@H](CCCCN)C(=O)N[C@@H](CCC(N)=O)C(=O)N[C@@H](CCCCN)C(=O)N[C@@H](CCCCN)C(=O)N[C@@H](CCC(N)=O)C(=O)N[C@@H](CCCNC(=N)N)C(=O)N[C@@H](CCC(=O)O)C(=O)N[C@@H](CCC(N)=O)C(=O)N[C@@H](C)C(=O)N[C@@H](CCC(=O)O)C(=O)N[C@H](C(=O)N[C@@H](CC(N)=O)C(=O)NC1(C(=O)N[C@@H](CCC(N)=O)C(=O)N[C@H](C(=O)N[C@@H](CC(C)C)C(=O)N[C@@H](C)C(=O)N[C@@H](CCC(N)=O)C(=O)N[C@H](C(N)=O)C(C)C)[C@@H](C)CC)CC1)[C@@H](C)O)[C@@H](C)CC)[C@@H](C)CC)C(C)C)C(C)C [compound 61] (Ac-IVLSLD[dV]PIKLK([γGlu-C16 diacid])KILLEQEKQKKQREQAETN[Ac3c]QILAQV-NH2) |
| 4 | > 250 | 1.05 | CC[C@H](C)[C@H](NC)C(=O)N[C@H](C(=O)N[C@@H](CC(C)C)C(=O)N[C@@H](CO)C(=O)N[C@@H](CC(C)C)C(=O)N[C@@H](CC(=O)O)C(=O)N[C@@H](C(=O)N1CCC[C@H]1C(=O)N[C@H](C(=O)N[C@@H](CCCCN)C(=O)N[C@@H](CC(C)C)C(=O)N[C@@H](CCCCNC(=O)CC[C@H](NC(=O)CCCCCCCCCCCCCCC(=O)O)C(=O)O)C(=O)N[C@@H](CCCCN)C(=O)N[C@H](C(=O)N[C@@H](CC(C)C)C(=O)N[C@@H](CC(C)C)C(=O)N[C@@H](CCC(=O)O)C(=O)N[C@@H](CCC(N)=O)C(=O)N[C@@H](CCC(=O)O)C(=O)N[C@@H](CCCCN)C(=O)N[C@@H](CCC(N)=O)C(=O)N[C@@H](CCCCN)C(=O)N[C@@H](CCCCN)C(=O)N[C@@H](CCC(N)=O)C(=O)N[C@@H](CCCNC(=N)N)C(=O)N[C@@H](CCC(=O)O)C(=O)N[C@@H](CCC(N)=O)C(=O)N[C@@H](C)C(=O)N[C@@H](CCC(=O)O)C(=O)N[C@H](C(=O)N[C@@H](CC(N)=O)C(=O)N[C@H](C(=O)N[C@@H](CCC(N)=O)C(=O)N[C@H](C(=O)N[C@@H](CC(C)C)C(=O)N[C@@H](C)C(=O)N[C@@H](CCC(N)=O)C(=O)N[C@H](C(N)=O)C(C)C)[C@@H](C)CC)C(C)C)[C@@H](C)O)[C@@H](C)CC)[C@@H](C)CC)C(C)C)C(C)C [compound 66] (H-[NMeI]VLSLD[dV]PIKLK([γGlu-C16 diacid])KILLEQEKQKKQREQAETNVQILAQV-NH2) |
| 8 | > 250 | 0.05 | CC[C@H](C)[C@H](NC)C(=O)N[C@H](C(=O)N[C@@H](CC(C)C)C(=O)N[C@@H](CO)C(=O)N[C@@H](CC(C)C)C(=O)N[C@@H](CC(=O)O)C(=O)N[C@@H](C(=O)N1CCC[C@H]1C(=O)N[C@H](C(=O)N[C@@H](CCCCN)C(=O)N[C@@H](CC(C)C)C(=O)N[C@@H](CCCCNC(=O)CC[C@H](NC(=O)CCCCCCCCCCCCCCC(=O)O)C(=O)O)C(=O)N[C@@H](CCCCN)C(=O)N[C@H](C(=O)N[C@@H](CC(C)C)C(=O)N[C@@H](CC(C)C)C(=O)N[C@@H](CCC(=O)O)C(=O)N[C@@H](CCC(N)=O)C(=O)N[C@@H](CCC(=O)O)C(=O)N[C@@H](CCCCN)C(=O)N[C@@H](CCC(N)=O)C(=O)N[C@@H](CCCCN)C(=O)N[C@@H](CCCCN)C(=O)N[C@@H](CCC(N)=O)C(=O)N[C@@H](CCCNC(=N)N)C(=O)N[C@@H](CCC(=O)O)C(=O)N[C@@H](CCC(N)=O)C(=O)N[C@@H](C)C(=O)N[C@@H](CCC(=O)O)C(=O)N[C@H](C(=O)N[C@@H](CC(N)=O)C(=O)N[C@@H](C)C(=O)N[C@@H](CCC(N)=O)C(=O)N[C@H](C(=O)N[C@@H](CC(C)C)C(=O)N[C@@H](C)C(=O)N[C@@H](CCC(N)=O)C(=O)N[C@H](C(N)=O)C(C)C)[C@@H](C)CC)[C@@H](C)O)[C@@H](C)CC)[C@@H](C)CC)C(C)C)C(C)C [compound 68] (H-[NMeI]VLSLD[dV]PIKLK([γGlu-C16 diacid])KILLEQEKQKKQREQAETNAQILAQV-NH2) |

Second part, the molecule before the results:

| SMILES | Emax (% I) [1] [% I] | EC50 [1] [nM] | EC50 [2] [nM] |
| --- | --- | --- | --- |
| CC[C@H](C)[C@H](NC)C(=O)N[C@H](C(=O)N[C@@H](CC(C)C)C(=O)N[C@@H](CO)C(=O)N[C@@H](CC(C)C)C(=O)N[C@@H](CC(=O)O)C(=O)N[C@@H](C(=O)N1CCC[C@H]1C(=O)N[C@H](C(=O)N[C@@H](CCCCN)C(=O)N[C@@](C)(CC(C)C)C(=O)N[C@@H](CCCCNC(=O)CC[C@H](NC(=O)CCCCCCCCCCCCCCC(=O)O)C(=O)O)C(=O)N[C@@H](CCCCN)C(=O)N[C@H](C(=O)N[C@@H](CC(C)C)C(=O)N[C@@H](CC(C)C)C(=O)N[C@@H](CCC(=O)O)C(=O)N[C@@H](CCC(N)=O)C(=O)N[C@@H](CCC(=O)O)C(=O)N[C@@H](CCCCN)C(=O)N[C@@H](CCC(N)=O)C(=O)N[C@@H](CCCCN)C(=O)N[C@@H](CCCCN)C(=O)N[C@@H](CCC(N)=O)C(=O)N[C@@H](CCCNC(=N)N)C(=O)N[C@@H](CCC(=O)O)C(=O)N[C@@H](CCC(N)=O)C(=O)N[C@@H](C)C(=O)N[C@@H](CCC(=O)O)C(=O)N[C@H](C(=O)N[C@@H](CC(N)=O)C(=O)NC(C)(C)C(=O)N[C@@H](CCC(N)=O)C(=O)N[C@H](C(=O)N[C@@H](CC(C)C)C(=O)N[C@@H](C)C(=O)N[C@@H](CCC(N)=O)C(=O)N[C@H](C(N)=O)C(C)C)[C@@H](C)CC)[C@@H](C)O)[C@@H](C)CC)[C@@H](C)CC)C(C)C)C(C)C [compound 65] (H-[NMeI]VLSLD[dV]PIK[αMeL]K([γGlu-C16 diacid])KILLEQEKQKKQREQAETN[Aib]QILAQV-NH2) | 10 | > 250 | 0.1 |
| CC[C@H](C)[C@H](NC)C(=O)N[C@H](C(=O)N[C@@H](CC(C)C)C(=O)N[C@@H](CO)C(=O)N[C@@H](CC(C)C)C(=O)N[C@@H](CC(=O)O)C(=O)N[C@@H](C(=O)N1CCC[C@H]1C(=O)N[C@H](C(=O)N[C@@H](CCCCN)C(=O)N[C@@](C)(CC(C)C)C(=O)N[C@@H](CCCCNC(=O)CC[C@H](NC(=O)CCCCCCCCCCCCCCC(=O)O)C(=O)O)C(=O)N[C@@H](CCCCN)C(=O)N[C@H](C(=O)N[C@@H](CC(C)C)C(=O)N[C@@H](CC(C)C)C(=O)N[C@@H](CCC(=O)O)C(=O)N[C@@H](CCC(N)=O)C(=O)N[C@@H](CCC(=O)O)C(=O)N[C@@H](CCCCN)C(=O)N[C@@H](CCC(N)=O)C(=O)N[C@@H](CCCCN)C(=O)N[C@@H](CCCCN)C(=O)N[C@@H](CCC(N)=O)C(=O)N[C@@H](CCCNC(=N)N)C(=O)N[C@@H](CCC(=O)O)C(=O)N[C@@H](CCC(N)=O)C(=O)N[C@@H](C)C(=O)N[C@@H](CCC(=O)O)C(=O)N[C@H](C(=O)N[C@@H](CC(N)=O)C(=O)N[C@H](C(=O)N[C@@H](CCC(N)=O)C(=O)N[C@H](C(=O)N[C@@H](CC(C)C)C(=O)N[C@@H](C)C(=O)N[C@@H](CCC(N)=O)C(=O)N[C@H](C(N)=O)C(C)C)[C@@H](C)CC)C(C)C)[C@@H](C)O)[C@@H](C)CC)[C@@H](C)CC)C(C)C)C(C)C [compound 67] (H-[NMeI]VLSLD[dV]PIK[αMeL]K([γGlu-C16 diacid])KILLEQEKQKKQREQAETNVQILAQV-NH2) | 8 | > 250 | 0.34 |

Reference: patent US20260001928A1 (CORTERIA PHARMACEUTICALS, priority 2022, published 2026)
